Results published in the supplement of paper PMC10307832.

Tests used:
Assay in all cases: relative viability (nuclei count vs DMSO), 5 days (fraction); higher = more cells survive
Venetoclax + Olaparib = compound: CC1(C)CCC(CN2CCN(c3ccc(C(=O)NS(=O)(=O)c4ccc(NCC5CCOCC5)c([N+](=O)[O-])c4)c(Oc4cnc5[nH]ccc5c4)c3)CC2)=C(c2ccc(Cl)cc2)C1 [Venetoclax] + O=C(c1cc(Cc2n[nH]c(=O)c3ccccc23)ccc1F)N1CCN(C(=O)C2CC2)CC1 [Olaparib] (partner 8 µM)
Procedure, shortened: (§1)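 After 5 days of treatment, lung cancer cells in 1536-well plates were fixed and stained in a single step (final 0.05% Triton X-100, 1% formaldehyde, 1 ug/ml Hoechst) and their nuclei counted on 4× images. Treatment had been applied by pin tool the day after seeding as one drug alone or as a fixed anchor-drug dose with five library-drug doses (not always all listed) in √10 steps. Relative viability is the nuclei count of treated wells divided by that of vehicle wells, and values are medians of duplicate plates.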

Venetoclax + Lapatinib = compound: CC1(C)CCC(CN2CCN(c3ccc(C(=O)NS(=O)(=O)c4ccc(NCC5CCOCC5)c([N+](=O)[O-])c4)c(Oc4cnc5[nH]ccc5c4)c3)CC2)=C(c2ccc(Cl)cc2)C1 [Venetoclax] + CS(=O)(=O)CCNCc1ccc(-c2ccc3ncnc(Nc4ccc(OCc5cccc(F)c5)c(Cl)c4)c3c2)o1 [Lapatinib] (partner 2 µM)
Procedure, shortened: as §1

Selumetinib + Decitabine = compound: Cn1cnc2c(F)c(Nc3ccc(Br)cc3Cl)c(C(=O)NOCCO)cc21 [Selumetinib] + Nc1ncn([C@H]2C[C@H](O)[C@@H](CO)O2)c(=O)n1 [Decitabine] (partner 2 µM)
Procedure, shortened: as §1

Selumetinib + Tozasertib = compound: Cn1cnc2c(F)c(Nc3ccc(Br)cc3Cl)c(C(=O)NOCCO)cc21 [Selumetinib] + Cc1cc(Nc2cc(N3CCN(C)CC3)nc(Sc3ccc(NC(=O)C4CC4)cc3)n2)n[nH]1 [Tozasertib] (partner 0.1 µM)
Procedure, shortened: as §1

Cell Line	relative viability (Venetoclax + Olaparib; first compound 0.01 µM)	relative viability (Venetoclax + Olaparib; first compound 0.03162 µM)	relative viability (Venetoclax + Olaparib; first compound 0.1 µM)	relative viability (Venetoclax + Olaparib; first compound 0.3162 µM)	relative viability (Venetoclax + Olaparib; first compound 1 µM)	relative viability (Venetoclax + Lapatinib; first compound 0.01 µM)	relative viability (Venetoclax + Lapatinib; first compound 0.03162 µM)	relative viability (Venetoclax + Lapatinib; first compound 0.1 µM)	relative viability (Venetoclax + Lapatinib; first compound 0.3162 µM)	relative viability (Venetoclax + Lapatinib; first compound 1 µM)	relative viability (Selumetinib + Decitabine; first compound 0.02 µM)	relative viability (Selumetinib + Decitabine; first compound 0.06325 µM)	relative viability (Selumetinib + Decitabine; first compound 0.2 µM)	relative viability (Selumetinib + Decitabine; first compound 0.6325 µM)	relative viability (Selumetinib + Tozasertib; first compound 0.02 µM)	relative viability (Selumetinib + Tozasertib; first compound 0.06325 µM)	relative viability (Selumetinib + Tozasertib; first compound 0.2 µM)	relative viability (Selumetinib + Tozasertib; first compound 0.6325 µM)
EBC-1	0.636	0.77	0.662	0.647	0.662	0.213	0.187	0.234	0.206	0.224	–	–	–	–	–	–	–	–
EKVX	0.93	0.908	0.817	0.855	0.819	0.191	0.22	0.219	0.193	0.185	0.339	0.29	0.37	0.339	0.36	0.345	0.378	0.336
EMC-BAC-2	0.503	0.554	0.5	0.497	0.471	0.88	0.878	0.731	0.847	0.827	0.991	0.976	0.997	0.942	0.383	0.361	0.349	0.387
EPLC-272H	0.63	0.697	0.803	0.786	0.83	–	0.87	0.89	1.08	0.921	0.364	0.339	0.346	0.294	0.185	0.181	0.34	0.283
H3255	0.626	0.576	0.545	0.597	0.566	0.268	0.263	0.195	0.282	0.319	0.647	0.649	0.557	0.614	0.624	0.687	0.74	0.556
HARA	0.803	0.993	–	0.814	0.822	0.876	0.68	0.647	0.822	0.758	0.691	0.502	0.602	0.483	0.108	0.115	0.111	0.102
HCC-15	0.607	0.754	0.75	0.68	0.668	0.887	0.855	0.774	0.796	0.774	0.556	0.449	0.438	0.392	0.372	0.209	0.268	0.158
HCC-44	1.05	1.01	0.919	0.971	0.983	0.981	0.979	0.997	1.08	0.973	1.03	0.982	0.962	0.942	1.12	0.93	0.747	0.701
HCC-78	0.718	0.78	0.879	0.871	0.686	0.859	0.736	0.604	0.935	0.662	0.819	0.759	0.779	0.685	0.703	0.44	0.436	0.408
